In ChEMBL document CHEMBL4033665, “Synthesis and applications of benzohydroxamic acid-based histone deacetylase inhibitors” (Eur J Med Chem, 2017):

Tests used:
Histone deacetylase 2 = Histone deacetylase 2 (Homo sapiens, UniProt Q92769); experiment: Inhibition of human HDAC2 after 15 mins by trypsin-coupled fluorescence assay
Histone deacetylase 3 = Histone deacetylase 3 (Homo sapiens, UniProt O15379); experiment: Inhibition of human HDAC3 after 15 mins by trypsin-coupled fluorescence assay
Histone deacetylase 4 = Histone deacetylase 4 (Homo sapiens, UniProt P56524); experiment: Inhibition of human HDAC4 after 15 mins by trypsin-coupled fluorescence assay
Chain of Histone deacetylase 4 (P56524 whole entry): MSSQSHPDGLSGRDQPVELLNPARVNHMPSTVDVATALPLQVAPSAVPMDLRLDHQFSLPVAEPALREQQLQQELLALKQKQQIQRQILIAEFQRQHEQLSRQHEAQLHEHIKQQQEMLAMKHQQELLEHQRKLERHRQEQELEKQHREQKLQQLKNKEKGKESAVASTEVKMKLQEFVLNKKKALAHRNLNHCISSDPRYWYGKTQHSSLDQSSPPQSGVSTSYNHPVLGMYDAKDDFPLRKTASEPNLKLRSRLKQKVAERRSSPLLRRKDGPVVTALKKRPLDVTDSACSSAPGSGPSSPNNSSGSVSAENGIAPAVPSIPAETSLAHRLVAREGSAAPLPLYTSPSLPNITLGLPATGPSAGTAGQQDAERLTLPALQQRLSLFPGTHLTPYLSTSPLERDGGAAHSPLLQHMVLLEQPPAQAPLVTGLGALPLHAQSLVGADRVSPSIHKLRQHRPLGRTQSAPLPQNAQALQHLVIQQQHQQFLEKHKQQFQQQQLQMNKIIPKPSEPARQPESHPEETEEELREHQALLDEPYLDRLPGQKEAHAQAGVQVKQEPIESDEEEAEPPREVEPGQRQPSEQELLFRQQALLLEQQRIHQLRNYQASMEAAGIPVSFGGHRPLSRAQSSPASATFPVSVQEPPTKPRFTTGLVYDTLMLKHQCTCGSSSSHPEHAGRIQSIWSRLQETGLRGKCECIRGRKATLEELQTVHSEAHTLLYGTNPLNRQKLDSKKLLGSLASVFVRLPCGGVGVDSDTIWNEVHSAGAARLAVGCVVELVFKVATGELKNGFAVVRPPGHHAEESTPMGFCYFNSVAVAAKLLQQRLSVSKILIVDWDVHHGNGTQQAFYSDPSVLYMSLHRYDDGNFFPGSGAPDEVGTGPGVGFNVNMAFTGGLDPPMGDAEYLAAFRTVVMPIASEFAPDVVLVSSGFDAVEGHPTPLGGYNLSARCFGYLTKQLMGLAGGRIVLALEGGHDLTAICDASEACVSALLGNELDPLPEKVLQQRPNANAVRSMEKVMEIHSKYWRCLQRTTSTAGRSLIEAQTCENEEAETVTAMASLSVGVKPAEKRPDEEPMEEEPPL

Histone deacetylase 9 = Histone deacetylase 9 (Homo sapiens, UniProt Q9UKV0); experiment: Inhibition of human HDAC9 after 15 mins by trypsin-coupled fluorescence assay
Chain of Histone deacetylase 9 (Q9UKV0 whole entry): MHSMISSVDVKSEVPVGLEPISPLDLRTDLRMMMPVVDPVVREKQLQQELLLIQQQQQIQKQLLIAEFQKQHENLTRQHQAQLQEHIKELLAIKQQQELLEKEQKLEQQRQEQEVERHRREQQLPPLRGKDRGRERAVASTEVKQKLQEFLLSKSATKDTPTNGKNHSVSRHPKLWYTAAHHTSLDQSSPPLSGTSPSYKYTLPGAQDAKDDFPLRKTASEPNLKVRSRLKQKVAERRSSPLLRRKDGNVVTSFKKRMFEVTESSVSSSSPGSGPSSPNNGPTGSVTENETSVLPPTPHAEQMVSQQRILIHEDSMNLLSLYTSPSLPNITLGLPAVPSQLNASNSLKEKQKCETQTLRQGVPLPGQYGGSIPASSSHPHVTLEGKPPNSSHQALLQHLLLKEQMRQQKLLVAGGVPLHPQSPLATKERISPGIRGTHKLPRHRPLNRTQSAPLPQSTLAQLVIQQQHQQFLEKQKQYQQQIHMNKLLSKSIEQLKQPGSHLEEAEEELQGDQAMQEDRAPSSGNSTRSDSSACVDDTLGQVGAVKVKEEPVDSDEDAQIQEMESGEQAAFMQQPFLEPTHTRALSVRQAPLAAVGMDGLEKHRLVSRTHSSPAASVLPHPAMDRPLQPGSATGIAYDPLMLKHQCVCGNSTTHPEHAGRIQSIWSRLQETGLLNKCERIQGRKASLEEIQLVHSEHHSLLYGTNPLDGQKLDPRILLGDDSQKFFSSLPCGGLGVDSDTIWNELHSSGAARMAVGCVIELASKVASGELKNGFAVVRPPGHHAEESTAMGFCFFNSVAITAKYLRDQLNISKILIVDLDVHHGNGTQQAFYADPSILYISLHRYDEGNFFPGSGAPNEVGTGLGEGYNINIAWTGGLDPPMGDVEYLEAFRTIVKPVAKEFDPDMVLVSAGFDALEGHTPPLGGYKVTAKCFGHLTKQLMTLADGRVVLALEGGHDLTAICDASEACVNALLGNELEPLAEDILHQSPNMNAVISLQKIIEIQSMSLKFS

[1] = target: T1, Polyamine deacetylase HDAC10 (Homo sapiens, UniProt Q969S8); experiment: Inhibition of human HDAC10 after 15 mins by trypsin-coupled fluorescence assay
T1 sequence (Q969S8 whole entry): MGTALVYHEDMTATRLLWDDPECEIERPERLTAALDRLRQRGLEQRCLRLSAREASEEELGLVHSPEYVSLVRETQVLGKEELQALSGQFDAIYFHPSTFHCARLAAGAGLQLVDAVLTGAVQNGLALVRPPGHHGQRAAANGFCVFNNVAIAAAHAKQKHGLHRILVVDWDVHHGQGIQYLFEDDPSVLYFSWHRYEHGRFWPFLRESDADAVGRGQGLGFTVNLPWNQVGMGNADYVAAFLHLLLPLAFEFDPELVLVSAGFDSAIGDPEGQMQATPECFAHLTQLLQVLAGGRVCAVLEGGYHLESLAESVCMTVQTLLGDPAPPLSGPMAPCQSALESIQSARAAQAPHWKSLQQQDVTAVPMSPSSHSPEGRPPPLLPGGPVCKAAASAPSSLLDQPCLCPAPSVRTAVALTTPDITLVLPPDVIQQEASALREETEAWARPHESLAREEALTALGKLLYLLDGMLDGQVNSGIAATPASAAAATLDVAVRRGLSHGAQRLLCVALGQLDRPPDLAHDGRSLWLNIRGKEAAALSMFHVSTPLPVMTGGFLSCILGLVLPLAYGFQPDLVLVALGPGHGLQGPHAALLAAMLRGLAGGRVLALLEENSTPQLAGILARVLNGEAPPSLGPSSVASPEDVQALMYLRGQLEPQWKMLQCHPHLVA

Histone deacetylase 11 = target: T2, Histone deacetylase 11 (Homo sapiens, UniProt Q96DB2); experiment: Inhibition of human HDAC11 after 15 mins by trypsin-coupled fluorescence assay
T2 sequence (Q96DB2 whole entry): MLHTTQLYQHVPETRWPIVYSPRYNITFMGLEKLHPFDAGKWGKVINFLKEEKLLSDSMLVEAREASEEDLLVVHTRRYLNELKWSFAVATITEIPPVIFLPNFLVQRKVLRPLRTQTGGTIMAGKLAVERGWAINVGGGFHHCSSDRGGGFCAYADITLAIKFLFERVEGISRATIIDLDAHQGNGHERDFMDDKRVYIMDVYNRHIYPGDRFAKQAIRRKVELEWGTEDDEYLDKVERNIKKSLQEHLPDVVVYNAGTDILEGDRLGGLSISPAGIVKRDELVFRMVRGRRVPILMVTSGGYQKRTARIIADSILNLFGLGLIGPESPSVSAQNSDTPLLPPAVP

Homo sapiens [2] = organism: Homo sapiens; experiment: Selectivity index, ratio of IC50 for human HDAC1 to IC50 for human HDAC6
Homo sapiens [3] = organism: Homo sapiens; experiment: Selectivity index, ratio of IC50 for human HDAC2 to IC50 for human HDAC6
Homo sapiens [4] = organism: Homo sapiens; experiment: Selectivity index, ratio of IC50 for human HDAC3 to IC50 for human HDAC6
Homo sapiens [5] = organism: Homo sapiens; experiment: Selectivity index, ratio of IC50 for human HDAC5 to IC50 for human HDAC6
Homo sapiens [6] = organism: Homo sapiens; experiment: Selectivity index, ratio of IC50 for human HDAC8 to IC50 for human HDAC6
Homo sapiens [7] = organism: Homo sapiens; experiment: Selectivity index, ratio of IC50 for human HDAC10 to IC50 for human HDAC6
Homo sapiens [8] = organism: Homo sapiens; experiment: Selectivity index, ratio of IC50 for human HDAC11 to IC50 for human HDAC6

Chain of Histone deacetylase 2 (Q92769 whole entry): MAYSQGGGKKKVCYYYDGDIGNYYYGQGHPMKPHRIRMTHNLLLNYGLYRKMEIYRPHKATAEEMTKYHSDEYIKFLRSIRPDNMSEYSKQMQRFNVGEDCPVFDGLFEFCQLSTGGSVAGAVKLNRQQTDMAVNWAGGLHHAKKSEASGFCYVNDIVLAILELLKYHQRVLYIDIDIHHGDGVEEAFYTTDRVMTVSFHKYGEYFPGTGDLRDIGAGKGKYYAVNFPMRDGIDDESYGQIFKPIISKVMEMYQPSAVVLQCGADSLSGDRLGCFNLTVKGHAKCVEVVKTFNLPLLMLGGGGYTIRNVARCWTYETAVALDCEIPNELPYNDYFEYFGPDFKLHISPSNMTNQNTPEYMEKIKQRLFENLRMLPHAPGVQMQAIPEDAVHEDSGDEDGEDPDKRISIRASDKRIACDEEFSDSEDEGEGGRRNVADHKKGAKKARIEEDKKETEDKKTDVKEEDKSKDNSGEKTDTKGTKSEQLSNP
Chain of Histone deacetylase 3 (O15379 whole entry): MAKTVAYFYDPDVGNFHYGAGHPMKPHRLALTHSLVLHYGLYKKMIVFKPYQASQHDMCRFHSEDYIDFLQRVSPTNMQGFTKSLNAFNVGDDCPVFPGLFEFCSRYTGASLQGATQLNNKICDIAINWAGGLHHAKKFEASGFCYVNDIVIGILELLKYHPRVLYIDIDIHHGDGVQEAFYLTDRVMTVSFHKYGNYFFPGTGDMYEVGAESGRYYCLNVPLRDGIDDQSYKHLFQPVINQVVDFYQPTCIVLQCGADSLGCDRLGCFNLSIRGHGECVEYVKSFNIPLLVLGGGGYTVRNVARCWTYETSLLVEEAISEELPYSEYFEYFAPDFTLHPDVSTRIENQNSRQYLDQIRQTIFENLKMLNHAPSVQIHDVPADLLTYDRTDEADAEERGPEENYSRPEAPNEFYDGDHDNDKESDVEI

O=C(NO)c1ccc(CN(CCO)C(=O)Cc2ccccc2)cc1
IC50 (Histone deacetylase 2): 2200 nM | IC50 (Histone deacetylase 3): 2100 nM | IC50 (Histone deacetylase 4): 2200 nM | IC50 (Histone deacetylase 9): 5300 nM | IC50 [1]: 700 nM | IC50 (Histone deacetylase 11): 3700 nM | Ratio IC50 (Homo sapiens [2]): 15 to 400 | Ratio IC50 (Homo sapiens [3]): 15 to 400 | Ratio IC50 (Homo sapiens [4]): 15 to 400 | Ratio IC50 (Homo sapiens [5]): 15 to 400 | Ratio IC50 (Homo sapiens [6]): 15 to 400 | Ratio IC50 (Homo sapiens [7]): 15 to 400 | Ratio IC50 (Homo sapiens [8]): 15 to 400
